This test can be described thus: Modified Recombinant Enzyme Assay: Glutaminase reaction buffer was prepared [50 mM Tris-HCl pH 8.8, 150 mM K2HPO4, […] EDTA, 0.1 mg/ml BSA (Calbiochem no. 2960), 1 mM DTT, 2 mM NADP+(Sigma Aldrich no. N5755), and 0.01% TX-100] and used to make 3×-enzyme-containing solution, 3×-substrate-containing solution, and 3×-inhibitor-containing solution (see below) Inhibitor-containing solution was made.
A word on the IC50: it is the point on the concentration scale where inhibition reaches its midpoint. As to `O=C(Cc1ccc(Cl)c(OC(F)(F)F)c1)Nc1ccc(CCCCc2nnc(NC(=O)Cc3ccccn3)s2)nn1`, the IC50 is 16 nM.

On to `COc1cc(CC(=O)Nc2ccc(CCCCc3nnc(NC(=O)Cc4ccccn4)s3)nn2)cc(OC(F)(F)F)c1`, for which the IC50 stood at 16 nM. For `O=C(Cc1cc(OC(F)(F)F)ccc1F)Nc1ccc(CCCCc2nnc(NC(=O)Cc3ccccn3)s2)nn1`, the IC50 is 20 nM. For the molecule `O=C(Cc1cc(O)cc(OC(F)(F)F)c1)Nc1ccc(CCCCc2nnc(NC(=O)Cc3ccccn3)s2)nn1`, the IC50 was found to be 13 nM. As for `Cc1cccc(CC(=O)Nc2nnc(CCCCc3ccc(NC(=O)Cc4cccc(OC(F)(F)F)c4)nn3)s2)n1`, the figure is 12 nM; as for `COc1ccc(OC(F)(F)F)cc1CC(=O)Nc1ccc(CCCCc2nnc(NC(=O)Cc3ccccn3)s2)nn1`, 34 nM; as for `Nc1cccc(CC(=O)Nc2nnc(CCCCc3ccc(NC(=O)Cc4cccc(OC(F)(F)F)c4)nn3)s2)n1`, 50 nM. On to `COc1ccc(CC(=O)Nc2ccc(CCCCc3nnc(NC(=O)Cc4ccccn4)s3)nn2)cc1OC(F)(F)F`, for which the half-maximal inhibitory concentration (IC50) is 24 nM. The result for `O=C(Cc1ccc(F)c(OC(F)(F)F)c1)Nc1ccc(CCCCc2nnc(NC(=O)Cc3ccccn3)s2)nn1` reads 33 nM. As for `O=C(Cc1ccccn1)Nc1nnc(CCCCc2ccc(NC(=O)C(O)c3ccccc3)nn2)s1` (stereo not drawn), the figure is 190 nM; as for `O=C(Cc1ccc(O)c(OC(F)(F)F)c1)Nc1ccc(CCCCc2nnc(NC(=O)Cc3ccccn3)s2)nn1`, 42 nM; as for `O=C(Cc1cc(OC(F)(F)F)ccc1O)Nc1ccc(CCCCc2nnc(NC(=O)Cc3ccccn3)s2)nn1`, 26 nM. The result for `CC(C)(C)OC(=O)Nc1cccc(CC(=O)Nc2nnc(CCCCc3ccc(NC(=O)Cc4cccc(OC(F)(F)F)c4)nn3)s2)n1` reads 140 nM.
